Measured values as given in patent publication US11013780B2, “Methods of treating female infertility” (Myovant Sciences GmbH, priority 2016, dated 2021).
Where a SMILES comes first, the peptide text is derived from it. [ ]: non-standard residue; d: D form. Arg(Me) = CNC(=N)NCCC[C@H](N)C(=O)O; Hyp = O=C(O)[C@@H]1C[C@@H](O)CN1; azaGly = NNC(=O)O

Key:
[1] = Pharmacokinetics in rats after SC and IV administration; settings: rat, in vivo
Description: The PK of API-MA was studied in rats after SC and IV administration.
The PK linearity of API-MA was also investigated in rats after IV administration. The plasma C5min and AUC(0-24) values increased dose-proportionally. […] The elimination T1/2 values were 0.4 hours at 0.01 and 0.1 mg/kg and 0.5 hours at 1 mg/kg. These findings indicate that the PK of API-FB was linear in rats after single IV administration over the dose range of 0.01 to 1 mg/kg. The greater than dose-proportional increase in the first-pass kinetics with SC administration would indicate nonlinear PK in rats after SC administration.

[2] = Pharmacokinetics in dogs after SC and IV administration; settings: dog, in vivo
Excerpt: The PK of API-MA was studied in dogs after SC and IV administration.

[3] = Pharmacokinetics in monkeys after SC and IV administration; settings: monkey, in vivo
Excerpt: The PK of API-MA was studied in monkeys after SC and IV administration.

[4] = Multiple-dose PK, 2-hour SC infusion once daily for 14 days, Japanese prostate cancer patients; format: in vivo, human; settings: male, human, in vivo, sc; for dose excreted: Mean percent cumulative urinary excretion at 24 hours postdose
Description: It was an open-label, ascending dose study of API-MA administered via 2-hour SC infusion once daily for 14 days that was expected to suppress testosterone in Japanese hormone-naïve prostate cancer patients. Six patients received API-MA at doses of 0.5 mg (3 patients) and 1.0 mg (3 patients) a day for 14 days.
To measure plasma concentrations of API-MA, blood specimens were collected at the following times: Day 1 (predose and 2, 4, 6, 10 hours postdose); days 2, 4, 6, 8, 10, and 12 (predose); day 14 (predose and 2, 4, 6, 10, 24, 48 hours postdose); day 21; and day 28. To measure urinary excretion of API-MA, urine specimens were collected at the following times: Day 1 (predose and 0 to 4, 4 to 8, 8 to 12, 12 to 24 hours postdose) and day 14 (0 to 4, 4 to 8, 8 to 12, 12 to 24 hours postdose).

[5] = iv, 1 mg/kg, T½ γ (elimination)

CNC(=N)NCCC[C@H](NC(=O)[C@H](CC(C)C)NC(=O)NNC(=O)[C@H](Cc1ccccc1)NC(=O)[C@@H](NC(=O)[C@H](CC(N)=O)NC(=O)[C@@H]1C[C@@H](O)CN1C(=O)[C@@H](Cc1ccc(O)cc1)NC(C)=O)[C@@H](C)O)C(=O)N[C@@H](Cc1c[nH]c2ccccc12)C(N)=O [Compound 1, 2-(N-Acetyl-D-tyrosyl-trans-4-hydroxy-L-prolyl-L-asparaginyl-L-threonyl-L-phenylalanyl)-hydrazinocarbonyl-L-leucyl-Nω-methyl-L-arginyl-L-tryptophanamide] (Ac-[dY][Hyp]NTF[azaGly]L[Arg(Me)]W-NH2)
AUC(0-t) ([1]; iv, 1 mg/kg): 1460 ± 143 ng·h/mL | Cmax at 5 min ([1]; iv, 1 mg/kg): 2670 ± 234 ng/mL | AUC(0-t) ([1]; sc, 0.1 mg/kg): 123 ± 9 ng·h/mL | Cmax ([1]; sc, 0.1 mg/kg): 90 ± 12.5 ng/mL | Tmax ([1]; sc, 0.1 mg/kg): 0.5 h | AUC(0-t) ([1]; sc, 1 mg/kg): 804 ± 133 ng·h/mL | Cmax ([1]; sc, 1 mg/kg): 381 ± 75.5 ng/mL | Tmax ([1]; sc, 1 mg/kg): 0.9 ± 0.2 h | bioavailability ([1]; sc, 1 mg/kg): 55.3 ± 8.6% | AUC(0-t) ([1]; sc, 10 mg/kg): 309 ± 70 ng·h/mL | Cmax ([1]; sc, 10 mg/kg): 285 ± 58.6 ng/mL | Tmax ([1]; sc, 10 mg/kg): 0.3 h | AUC(0-t) ([2]; iv, 1 mg/kg): 3090 ± 80 ng·h/mL | Cmax at 5 min ([2]; iv, 1 mg/kg): 4250 ± 543 ng/mL | half-life ([2]; iv, 1 mg/kg, T½ α): 0.2 h | half-life ([2]; iv, 1 mg/kg, T½ β): 1.1 h | half-life [2, 5]: 3 ± 0.1 h | AUC(0-t) ([2]; sc, 0.1 mg/kg): 252 ± 34 ng·h/mL | Cmax ([2]; sc, 0.1 mg/kg): 86.6 ± 19 ng/mL | Tmax ([2]; sc, 0.1 mg/kg): 0.8 ± 0.3 h | bioavailability ([2]; sc, 0.1 mg/kg): 81.5 ± 11.5% | half-life ([2]; sc, 0.1 mg/kg, T½ β): 1.4 ± 0.2 h | AUC(0-t) ([2]; sc, 1 mg/kg): 2600 ± 219 ng·h/mL | Cmax ([2]; sc, 1 mg/kg): 883 ± 251 ng/mL | Tmax ([2]; sc, 1 mg/kg): 0.8 ± 0.3 h | bioavailability ([2]; sc, 1 mg/kg): 84 ± 8.1% | half-life ([2]; sc, 1 mg/kg, T½ β): 1.4 ± 0.3 h | half-life ([2]; sc, 1 mg/kg, T½ γ): 2.6 ± 0.2 h | AUC(0-t) ([2]; sc, 10 mg/kg): 28600 ng·h/mL | Cmax ([2]; sc, 10 mg/kg): 8840 ± 1200 ng/mL | Tmax ([2]; sc, 10 mg/kg): 1 h | bioavailability ([2]; sc, 10 mg/kg): 92.7 ± 7.7% | half-life ([2]; sc, 10 mg/kg, T½ β): 1.5 ± 0.4 h | half-life ([2]; sc, 10 mg/kg, T½ γ): 2.6 ± 0.1 h | AUC(0-t) ([3]; iv, 1 mg/kg): 3160 ± 594 ng·h/mL | Cmax at 5 min ([3]; iv, 1 mg/kg): 5030 ± 787 ng/mL | half-life ([3]; iv, 1 mg/kg, T½ α): 0.3 h | half-life ([3]; iv, 1 mg/kg, T½ β): 1.2 ± 0.1 h | half-life [3, 5]: 3.2 ± 0.1 h | AUC(0-t) ([3]; sc, 0.1 mg/kg): 295 ± 27 ng·h/mL | Cmax ([3]; sc, 0.1 mg/kg): 123 ± 27.3 ng/mL | Tmax ([3]; sc, 0.1 mg/kg): 0.4 ± 0.1 h | bioavailability ([3]; sc, 0.1 mg/kg): 94.9 ± 12.4% | half-life ([3]; sc, 0.1 mg/kg, T½ β): 1.6 ± 0.3 h | AUC(0-t) ([3]; sc, 1 mg/kg): 2790 ± 262 ng·h/mL | Cmax ([3]; sc, 1 mg/kg): 1320 ± 316 ng/mL | Tmax ([3]; sc, 1 mg/kg): 0.3 h | bioavailability ([3]; sc, 1 mg/kg): 90.1 ± 15.4% | half-life ([3]; sc, 1 mg/kg, T½ β): 1.4 ± 0.2 h | half-life ([3]; sc, 1 mg/kg, T½ γ): 2.5 ± 0.2 h | AUC(0-t) ([3]; sc, 10 mg/kg): 31600 ng·h/mL | Cmax ([3]; sc, 10 mg/kg): 12100 ng/mL | Tmax ([3]; sc, 10 mg/kg): 0.4 ± 0.1 h | bioavailability ([3]; sc, 10 mg/kg): 102 ± 14.3% | half-life ([3]; sc, 10 mg/kg, T½ β): 1.5 ± 0.3 h | half-life ([3]; sc, 10 mg/kg, T½ γ): 2.6 ± 0.3 h | Mean percent cumulative urinary excretion at 24 hours postdose ([4]; 0.5 mg/day): 8.99% | dose excreted ([4]; 0.5 mg/day): 6.5% | Mean percent cumulative urinary excretion at 24 hours postdose ([4]; 1 mg/day): 9.41% | dose excreted ([4]; 1 mg/day): 8.86%
